Assay results reported in ChEMBL document CHEMBL3046636, “Synthesis and anti-juvenile hormone activity of ethyl 4-(2-aryloxyhexyloxy)benzoates” (2006).
Calls of active or inactive are those of the source. The rule behind the calls is not given here.

Tests used:
[1] = system: Bombyx mori; assay: Induction of precocious metamorphosis in newly molted fourth-instar larvae of Bombyx mori assessed as precocious metamorphosis measured after topical treatment; format: functional, organism-based
[2] = system: Bombyx mori; assay: Induction of precocious metamorphosis in 24 hr old third-instar larvae of Bombyx mori assessed as precocious metamorphosis at 10 ug/larva topically by antijuvenile hormone activity assay; format: functional
[3] = system: Bombyx mori; assay: Induction of precocious metamorphosis in 24 hr old third-instar larvae of Bombyx mori assessed as precocious metamorphosis at 1 ug/larva topically by antijuvenile hormone activity assay; format: functional
[4] = system: Bombyx mori; assay: Induction of precocious metamorphosis in 24 hr old third-instar larvae of Bombyx mori assessed as precocious metamorphosis at 40 ug/larva topically by antijuvenile hormone activity assay; format: functional
[5] = system: Bombyx mori; assay: Induction of precocious metamorphosis in 24 hr old third-instar larvae of Bombyx mori assessed as precocious metamorphosis at 200 ppm dietary administration by antijuvenile hormone activity assay; format: functional
[6] = system: Bombyx mori; assay: Induction of precocious metamorphosis in 24 hr old third-instar larvae of Bombyx mori assessed as precocious metamorphosis at 50 ppm dietary administration by antijuvenile hormone activity assay; format: functional

SMILES	Activity [1]	Activity [2]	Activity [3]	Activity [4]	Activity [5]	Activity [6]
CCCCC(COc1ccc(C(=O)OCC)cc1)Oc1ccc(Cl)cc1 (stereo not given)	inactive	30%	0%	–	–	–
CCCCC(COc1ccc(C(=O)OCC)cc1)Oc1ccncc1 (stereo not given)	inactive	0%	0%	–	–	–
CCCCC(COc1ccc(C(=O)OCC)cc1)Oc1ccc(C)nc1 (stereo not given)	inactive	20%	20%	75%	–	–
CCCCC(COc1ccc(C(=O)OCC)cc1)Oc1cccnc1 (stereo not given)	inactive	47%	10%	57%	–	–
CCCCC(COc1ccc(C(=O)OCC)cc1)Oc1ccccc1Cl (stereo not given)	inactive	0%	0%	–	–	–
CCCCC(COc1ccc(C(=O)OCC)cc1)Oc1ccc(C)cc1 (stereo not given)	inactive	45%	5%	58%	–	–
CCCCC(COc1ccc(C(=O)OCC)cc1)Oc1ccccc1C (stereo not given)	inactive	10%	0%	–	–	–
CCCCC(COc1ccc(C(=O)OCC)cc1)Oc1cccc(C)c1 (stereo not given)	inactive	5%	0%	55%	–	–
CCCCC(COc1ccc(C(=O)OCC)cc1)Oc1ccccc1 (stereo not given)	inactive	66%	32%	70%	75%	25%
CCCCC(COc1ccc(C(=O)OCC)cc1)Oc1cccc(Cl)c1 (stereo not given)	inactive	45%	25%	75%	–	–
CCCCC(COc1ccc(C(=O)O)cc1)Oc1ccccc1 (stereo not given)	–	–	–	–	0%	0%
